Source: patent publication US7687651B2, “Method for the preparation of trans-or cis-diammoniumdichlorodihydroxoplatinum(IV) and the use thereof in the production of pharmaceutical active substances” (priority 2003, dated 2010)
Blank lines part the entries; values can stand above or below the molecule they belong to.

How the values were obtained:
Format in all cases: cell-based, human
[1] = system: MCF-7 Breast cancer; assay: Growth inhibition test on MCF-7 cells; settings: Table 1
Procedure: (§1) Growth inhibition tests on various human cell lines show the different activities of cisplatin, cis-oxoplatin and oxaliplatin. […] The following Table illustrates the results produced with cisplatin, oxoplatin, carboplatin and oxaliplatin (the values specified are IC50 values in μg/ml, i.e., the concentration where 50% of the cells survive, nd=not determined; res=resistant=non-sensitive or IC50 value cannot be determined at a concentration of up to 40 μg/ml; IC=inhibition concentration).

[2] = system: HT29 Colon carcinoma; assay: Growth inhibition test on HT29 cells
Procedure: (§2) The effect of cis-oxoplatin Ca and cis-oxoplatin was compared on 10 cell lines (Table 4).
(§3) (IC50 values specified in μg/ml; the test was performed as a formazan test).

[3] = system: JVSO Melanoma; assay: Growth inhibition test on JVSO cells; settings: Table 1
Procedure: as §1

[4] = system: HCT8 Colon carcinoma; assay: Growth inhibition test on HCT8 cells; settings: Table 1
Procedure: as §1

[5] = system: M518 Melanoma; assay: Growth inhibition test on M518 cells; settings: Table 1
Procedure: as §1

[6] = system: Me128 Melanoma; assay: Growth inhibition test on Me128 cells; settings: Table 1
Procedure: as §1

[7] = system: A498 Renal cells; assay: Growth inhibition test on A498 cells; settings: Table 1
Procedure: as §1

[8] = system: HCT-15 Colon carcinoma; assay: Growth inhibition test on HCT-15 cells; settings: Table 1
Procedure: as §1

[9] = system: C320DM Colon carcinoma; assay: Growth inhibition test on C320DM cells; settings: Table 1
Procedure: as §1

[10] = system: MiaPaCa2 Pancreatic cancer; assay: Growth inhibition test on MiaPaCa2 cells; settings: Table 1
Procedure: as §1

[11] = system: Colo205 Colon carcinoma; assay: Growth inhibition test on Colo205 cells
Procedure: as §2, §3

[12] = system: M607 Melanoma; assay: Growth inhibition test on M607 cells; settings: Table 1
Procedure: as §1

[13] = system: CC1227 Colon carcinoma; assay: Growth inhibition test on CC1227 cells; settings: Table 1
Procedure: as §1

[14] = system: PC3 Prostate; assay: Growth inhibition test on PC3 cells; settings: for IC50: PC3 Prostate; for % Survival: PC3 cells
Procedure: as §1

[15] = system: T47D Breast cancer; assay: Growth inhibition test on T47D cells
Procedure: as §2, §3

[16] = system: Panc1 Pancreatic cancer; assay: Growth inhibition test on Panc1 cells; settings: Table 1
Procedure: as §1

[17] = system: BxPC3 Pancreatic cancer; assay: Growth inhibition test on BxPC3 cells
Procedure: as §2, §3

[18] = system: SaOS Osteosarcoma; assay: Growth inhibition test on SaOS cells; settings: Table 1
Procedure: as §1

[19] = system: HOS Osteosarcoma; assay: Growth inhibition test on HOS cells; settings: Table 1
Procedure: as §1

[20] = system: Du145 Prostate; assay: Growth inhibition test on Du145 cells; settings: for IC50: Du145 Prostate
Procedure: as §2, §3

[21] = system: MDA-MB-435 Breast; assay: Formazan test on MDA-MB-435 cells; settings: Table 4
Procedure: as §2, §3

[22] = system: BT20 Breast; assay: Formazan test on BT20 cells; settings: Table 4
Procedure: as §2, §3

[23] = system: SW480 Colon; assay: Growth inhibition test on SW480 cells; settings: for IC50: SW480 Colon
Procedure: as §2, §3

[24] = system: 10 cell lines (Table 4); assay: Formazan test, IC50 mean value for all cell lines of Table 4; settings: mean over the 10 cell lines of Table 4
Procedure: as §2, §3

[25] = system: CaCo-2 Colon; assay: Growth inhibition test on CaCo-2 cells; settings: for IC50: CaCo-2 Colon
Procedure: as §2, §3

[26] = system: CRO2B Carcinoid; assay: Growth inhibition test on CRO2B cells; settings: for IC50: CRO2B Carcinoid
Procedure: as §2, §3

[27] = system: HT29, SW480, SK-OV4, PC3, SIM, CaCO-2, DU145 and CRO2B cells; assay: Growth inhibition, IC50 over eight cell lines of Table 2; settings: CaCO-2, DU145, CRO2B
Procedure: as §1
The activities differ according to the cell line.

[28] = system: SK-OV4 Ovarian cancer; assay: Growth inhibition test on SK-OV4 cells
Procedure: as §1

[29] = system: SIM Sarcoma; assay: Growth inhibition test on SIM cells
Procedure: as §1
What is seen primarily in children are leukemias, neuroblastomas and Ewing's sarcoma/peripheral neuroectodermal tumors (group of the Ewing family of tumors=EFT). The investigated tumor cell lines include three EFTs (EW-7, SIM and KAL), as well as two neuroblastoma cell lines (NB: LAN1 and LAN5; Los Angeles neuroblastoma=LAN) (see Table 3).

[30] = system: U 373 MG Astrocytoma; assay: Growth inhibition test on U 373 MG cells; settings: Table 2
Procedure: as §1

[31] = system: SK-OV3 Ovarian cancer; assay: Growth inhibition test on SK-OV3 cells; settings: Table 2
Procedure: as §1

[32] = Table 1, Colo205 Colon carcinoma
[33] = Table 1, BxPC3 Pancreatic cancer

Molecule: N.N.[Cl][Pt][Cl] [Cisplatin, cisplatin]
- IC50 [1]: 2.5 µg/mL
- IC50 ([2]; Table 1, HT29 Colon carcinoma): 0.3 µg/mL
- IC50 [3]: 40 µg/mL
- IC50 [4]: 5 µg/mL
- IC50 [5]: 40 µg/mL
- IC50 [6]: 0.3 µg/mL
- IC50 [7]: 1 µg/mL
- IC50 [8]: 0.3 µg/mL
- IC50 [9]: 0.3 µg/mL
- IC50 [10]: 1.5 µg/mL
- IC50 [11, 32]: 10 µg/mL
- IC50 [12]: 0.3 µg/mL
- IC50 [13]: 0.3 µg/mL
- IC50 ([14]; Table 1): res (res=resistant=non-sensitive or IC50 value cannot be determined at a concentration of up to 40 μg/ml)
- IC50 ([15]; Table 1, T47D Breast cancer): 0.3 µg/mL
- IC50 [16]: 1 µg/mL
- IC50 [17, 33]: 0.6 µg/mL

Molecule: N.N.O=C([O-])C1(C(=O)[O-])CCC1.[Pt+2] [Carboplatin, carboplatin]
- IC50 [1]: res (res=resistant=non-sensitive or IC50 value cannot be determined at a concentration of up to 40 μg/ml)
- IC50 ([2]; Table 1, HT29 Colon carcinoma): 20 µg/mL
- IC50 [3]: res (res=resistant=non-sensitive or IC50 value cannot be determined at a concentration of up to 40 μg/ml)
- IC50 [4]: res (res=resistant=non-sensitive or IC50 value cannot be determined at a concentration of up to 40 μg/ml)
- IC50 [5]: res (res=resistant=non-sensitive or IC50 value cannot be determined at a concentration of up to 40 μg/ml)
- IC50 [6]: 10 µg/mL
- IC50 [7]: res (res=resistant=non-sensitive or IC50 value cannot be determined at a concentration of up to 40 μg/ml)
- IC50 [8]: res (res=resistant=non-sensitive or IC50 value cannot be determined at a concentration of up to 40 μg/ml)
- IC50 [9]: 10 µg/mL
- IC50 [10]: 5 µg/mL
- IC50 [11, 32]: res (res=resistant=non-sensitive or IC50 value cannot be determined at a concentration of up to 40 μg/ml)
- IC50 [12]: 10 µg/mL
- IC50 [18]: 5 µg/mL
- IC50 [19]: 5 µg/mL
- IC50 [13]: res (res=resistant=non-sensitive or IC50 value cannot be determined at a concentration of up to 40 μg/ml)
- IC50 ([14]; Table 1): 10 µg/mL
- IC50 [16]: 20 µg/mL
- IC50 [17, 33]: 10 µg/mL

- IC50 ([2]; Table 4, HT29 Colon, formazan test): 8.0 µg/mL
- IC50 ([20]; Table 4, formazan test): 14.5 µg/mL
- IC50 [21]: 12.0 µg/mL
- IC50 [22]: 3.5 µg/mL
- IC50 ([23]; Table 4, formazan test): 2.5 µg/mL
- IC50 ([11]; Table 4, Colo205 Colon, formazan test): 13.5 µg/mL
- IC50 (±SEM) mean value for all cell lines [24]: 9.1 ± 2.8 µg/mL
- IC50 ([25]; Table 4, formazan test): 0.87 µg/mL
- IC50 ([15]; Table 4, T47D Breast, formazan test): 3.6 µg/mL
- IC50 ([17]; Table 4, BxPC3 Pancreas, formazan test): 30.0 µg/mL
Molecule: cis-diammoniumdichlorodihydroxoplatinum(IV) Calcium Salt [Oxoplatin Ca]
- IC50 ([26]; Table 4, formazan test): 2.20 µg/mL

Molecule: [NH2][Pt]([NH2])([O-])([O-])([Cl])[Cl].[Na+].[Na+] [cis-Oxoplatin sodium salt, cis-diammoniumdichlorodihydroxoplatinum(IV) Disodium Salt]
- IC50 values of these cells (mean ± spread) [27]: 9.5 ± 8 µg/mL
- more effective than cis-oxoplatin ([2]; HT29, Na salt versus cis-oxoplatin): about 70%
- IC50 ([2]; Table 2, HT29 Colon): 4.55 µg/mL
- efficiency compared with cis-oxoplatin ([20]; DU145, Na salt versus cis-oxoplatin): less efficient
- IC50 ([20]; Table 2): 27.0 µg/mL
- more effective than cis-oxoplatin ([28]; SK-OV4, Na salt versus cis-oxoplatin): about 30%
- IC50 ([28]; Table 2, SK-OV4 Ovarian cancer): 12.8 µg/mL
- more effective than cis-oxoplatin ([29]; SIM, Na salt versus cis-oxoplatin): about 30%
- IC50 ([29]; Table 2, SIM Sarcoma): 11.2 µg/mL
- IC50 [30]: 18 µg/mL
- more effective than cis-oxoplatin ([23]; SW480, Na salt versus cis-oxoplatin): about 70%
- IC50 ([23]; Table 2): 2.5 µg/mL
- efficiency compared with cis-oxoplatin ([25]; CaCO-2, Na salt versus cis-oxoplatin): less efficient
- IC50 ([25]; Table 2): 2.22 µg/mL
- efficiency compared with cis-oxoplatin ([26]; CRO2B, Na salt versus cis-oxoplatin): less efficient
- IC50 ([26]; Table 2): 10.1 µg/mL
- more effective than cis-oxoplatin ([14]; PC3, Na salt versus cis-oxoplatin): about 30%
- % Survival ([14]; Conc. 5 μg/ml): 109.3 ± 9.1%
- % Survival ([14]; Conc. 10 μg/ml): 77.7 ± 2.4%
- % Survival ([14]; Conc. 20 μg/ml): 33.2 ± 3.0%
- % Survival ([14]; Conc. 40 μg/ml): 0.6 ± 0.5%
- IC50 ([14]; Table 2): 5.3 µg/mL
- IC50 ([15]; Table 2, T47D Breast cancer): 18 µg/mL
- IC50 ([17]; Table 2, BxPC3 Pancreatic carcinoma): 12 µg/mL
- IC50 [31]: 22 µg/mL

Molecule: O=C1[O][Pt]2([NH][C@@H]3CCCC[C@H]3[NH]2)[O]C1=O [Oxaliplatin, oxaliplatin]
- IC50 [1]: res (res=resistant=non-sensitive or IC50 value cannot be determined at a concentration of up to 40 μg/ml)
- IC50 ([2]; Table 1, HT29 Colon carcinoma): 20 µg/mL
- IC50 [3]: res (res=resistant=non-sensitive or IC50 value cannot be determined at a concentration of up to 40 μg/ml)
- IC50 [4]: res (res=resistant=non-sensitive or IC50 value cannot be determined at a concentration of up to 40 μg/ml)
- IC50 [5]: res (res=resistant=non-sensitive or IC50 value cannot be determined at a concentration of up to 40 μg/ml)
- IC50 [6]: 10 µg/mL
- IC50 [7]: 10 µg/mL
- IC50 [8]: 10 µg/mL
- IC50 [9]: 0.15 µg/mL
- IC50 [10]: 5 µg/mL
- IC50 [11, 32]: 1 µg/mL
- IC50 [12]: 10 µg/mL
- IC50 [13]: 0.2 µg/mL
- IC50 ([15]; Table 1, T47D Breast cancer): 0.1 µg/mL
- IC50 [16]: 5 µg/mL
- IC50 [17, 33]: 10 µg/mL
